Laboratory results as given in the supplement of paper PMC10307832.

What was measured:
Test in all cases: relative viability (nuclei count vs DMSO), 5 days (fraction); higher = more cells survive
ABC-1 = tested on: ABC-1
Procedure, shortened: (§1)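 Lung cancer cell lines were seeded in 1536-well plates and dosed by pin tool the next day, with either a single drug or a fixed anchor-drug dose combined with five library-drug doses (not always all listed) spaced in √10 steps. Five days later, one step fixed the cells and stained their nuclei (final 0.05% Triton X-100, 1% formaldehyde, 1 ug/ml Hoechst), and nuclei were counted on 4× images. Relative viability is the nuclei count in treated wells divided by the count in vehicle wells, and each value is the median of duplicate plates.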

COR-L23 = tested on: COR-L23
Procedure, shortened: as §1

ChaGo-K-1 = tested on: ChaGo-K-1
Procedure, shortened: as §1

EMC-BAC-2 = tested on: EMC-BAC-2
Procedure, shortened: as §1

HARA = tested on: HARA
Procedure, shortened: as §1

HCC-15 = tested on: HCC-15
Procedure, shortened: as §1

HCC-366 = tested on: HCC-366
Procedure, shortened: as §1

HCC-78 = tested on: HCC-78
Procedure, shortened: as §1

HOP-62 = tested on: HOP-62
Procedure, shortened: as §1

LC-2-ad = tested on: LC-2-ad
Procedure, shortened: as §1

NCI-H1395 = tested on: NCI-H1395
Procedure, shortened: as §1

NCI-H1793 = tested on: NCI-H1793
Procedure, shortened: as §1

NCI-H1944 = tested on: NCI-H1944
Procedure, shortened: as §1

NCI-H1993 = tested on: NCI-H1993
Procedure, shortened: as §1

NCI-H2023 = tested on: NCI-H2023
Procedure, shortened: as §1

NCI-H2126 = tested on: NCI-H2126
Procedure, shortened: as §1

NCI-H2228 = tested on: NCI-H2228
Procedure, shortened: as §1

NCI-H23 = tested on: NCI-H23
Procedure, shortened: as §1

NCI-H2405 = tested on: NCI-H2405
Procedure, shortened: as §1

NCI-H358 = tested on: NCI-H358
Procedure, shortened: as §1

NCI-H838 = tested on: NCI-H838
Procedure, shortened: as §1

SK-LU-1 = tested on: SK-LU-1
Procedure, shortened: as §1

`CCN(CC)CCCCNc1ncc2cc(-c3cc(OC)cc(OC)c3)c(NC(=O)NC(C)(C)C)nc2n1` + CS(=O)(=O)N1CCN(Cc2cc3nc(-c4cccc5[nH]ncc45)nc(N4CCOCC4)c3s2)CC1 [Pictilisib] (partner 1 µM) was tested, and the relative viability (ABC-1; first compound 0.01 µM) was 0.686, the relative viability (ABC-1; first compound 0.03162 µM) was 0.66 and the relative viability (ABC-1; first compound 0.1 µM) was 0.736. The relative viability (ABC-1; first compound 0.3162 µM) was 0.818, the relative viability (ABC-1; first compound 1 µM) was 0.671 and the relative viability (COR-L23; first compound 0.01 µM) was 0.781. It also gave a relative viability (COR-L23; first compound 0.03162 µM) of 0.955, a relative viability (COR-L23; first compound 0.1 µM) of 0.824 and a relative viability (COR-L23; first compound 0.3162 µM) of 0.809. The relative viability (COR-L23; first compound 1 µM) was 0.8, the relative viability (ChaGo-K-1; first compound 0.01 µM) was 0.551 and the relative viability (ChaGo-K-1; first compound 0.03162 µM) was 0.559. For the same compound, the relative viability (ChaGo-K-1; first compound 0.1 µM) was 0.95, the relative viability (ChaGo-K-1; first compound 0.3162 µM) was 0.98 and the relative viability (ChaGo-K-1; first compound 1 µM) was 0.437. It also gave a relative viability (EMC-BAC-2; first compound 0.01 µM) of 0.581, a relative viability (EMC-BAC-2; first compound 0.03162 µM) of 0.507 and a relative viability (EMC-BAC-2; first compound 0.1 µM) of 0.546. The relative viability (EMC-BAC-2; first compound 0.3162 µM) was 0.574, the relative viability (EMC-BAC-2; first compound 1 µM) was 0.456 and the relative viability (HARA; first compound 0.01 µM) was 0.421. For the same compound, the relative viability (HARA; first compound 0.03162 µM) was 0.356, the relative viability (HARA; first compound 0.1 µM) was 0.307 and the relative viability (HARA; first compound 0.3162 µM) was 0.485. The relative viability (HARA; first compound 1 µM) was 0.176, the relative viability (HCC-15; first compound 0.01 µM) was 0.813 and the relative viability (HCC-15; first compound 0.03162 µM) was 0.813. The relative viability (HCC-15; first compound 0.1 µM) was 0.766, the relative viability (HCC-15; first compound 0.3162 µM) was 0.929 and the relative viability (HCC-15; first compound 1 µM) was 0.715. The relative viability (HCC-366; first compound 0.01 µM) was 0.102, the relative viability (HCC-366; first compound 0.03162 µM) was 0.177 and the relative viability (HCC-366; first compound 0.1 µM) was 0.207. For the same compound, the relative viability (HCC-366; first compound 0.3162 µM) was 0.164, the relative viability (HCC-366; first compound 1 µM) was 0.176 and the relative viability (HCC-78; first compound 0.03162 µM) was 0.189. It also gave a relative viability (HCC-78; first compound 0.1 µM) of 0.224, a relative viability (HCC-78; first compound 0.3162 µM) of 0.218 and a relative viability (HCC-78; first compound 1 µM) of 0.185. For the same compound, the relative viability (HOP-62; first compound 0.01 µM) was 0.732, the relative viability (HOP-62; first compound 0.03162 µM) was 0.772 and the relative viability (HOP-62; first compound 0.1 µM) was 0.582. It also gave a relative viability (HOP-62; first compound 0.3162 µM) of 0.747, a relative viability (HOP-62; first compound 1 µM) of 0.985 and a relative viability (LC-2-ad; first compound 0.01 µM) of 0.481. It also gave a relative viability (LC-2-ad; first compound 0.03162 µM) of 0.449, a relative viability (LC-2-ad; first compound 0.1 µM) of 0.547 and a relative viability (LC-2-ad; first compound 0.3162 µM) of 0.544. It also gave a relative viability (LC-2-ad; first compound 1 µM) of 0.392, a relative viability (NCI-H1395; first compound 0.03162 µM) of 0.486 and a relative viability (NCI-H1395; first compound 0.1 µM) of 0.949. It also gave a relative viability (NCI-H1395; first compound 0.3162 µM) of 0.479, a relative viability (NCI-H1395; first compound 1 µM) of 0.346 and a relative viability (NCI-H1793; first compound 0.01 µM) of 0.286. The relative viability (NCI-H1793; first compound 0.1 µM) was 0.322, the relative viability (NCI-H1793; first compound 0.3162 µM) was 0.233 and the relative viability (NCI-H1793; first compound 1 µM) was 0.224. It also gave a relative viability (NCI-H1944; first compound 0.01 µM) of 0.362, a relative viability (NCI-H1944; first compound 0.03162 µM) of 0.327 and a relative viability (NCI-H1944; first compound 0.1 µM) of 0.367. The relative viability (NCI-H1944; first compound 0.3162 µM) was 0.352, the relative viability (NCI-H1944; first compound 1 µM) was 0.341 and the relative viability (NCI-H1993; first compound 0.01 µM) was 0.759. The relative viability (NCI-H1993; first compound 0.03162 µM) was 0.947, the relative viability (NCI-H1993; first compound 0.1 µM) was 0.861 and the relative viability (NCI-H1993; first compound 0.3162 µM) was 0.86. For the same compound, the relative viability (NCI-H1993; first compound 1 µM) was 0.91, the relative viability (NCI-H2023; first compound 0.01 µM) was 0.22 and the relative viability (NCI-H2023; first compound 0.03162 µM) was 0.222. The relative viability (NCI-H2023; first compound 0.1 µM) was 0.221, the relative viability (NCI-H2023; first compound 0.3162 µM) was 0.232 and the relative viability (NCI-H2023; first compound 1 µM) was 0.193. For the same compound, the relative viability (NCI-H2126; first compound 0.01 µM) was 0.498, the relative viability (NCI-H2126; first compound 0.03162 µM) was 0.489 and the relative viability (NCI-H2126; first compound 0.1 µM) was 0.508. For the same compound, the relative viability (NCI-H2126; first compound 0.3162 µM) was 0.523, the relative viability (NCI-H2126; first compound 1 µM) was 0.477 and the relative viability (NCI-H2228; first compound 0.01 µM) was 0.441. The relative viability (NCI-H2228; first compound 0.03162 µM) was 0.311, the relative viability (NCI-H2228; first compound 0.1 µM) was 0.353 and the relative viability (NCI-H2228; first compound 0.3162 µM) was 0.539. It also gave a relative viability (NCI-H2228; first compound 1 µM) of 0.246, a relative viability (NCI-H23; first compound 0.01 µM) of 0.414 and a relative viability (NCI-H23; first compound 0.03162 µM) of 0.411. For the same compound, the relative viability (NCI-H23; first compound 0.1 µM) was 0.463, the relative viability (NCI-H23; first compound 0.3162 µM) was 0.37 and the relative viability (NCI-H23; first compound 1 µM) was 0.435. The relative viability (NCI-H2405; first compound 0.01 µM) was 0.361, the relative viability (NCI-H2405; first compound 0.03162 µM) was 0.412 and the relative viability (NCI-H2405; first compound 0.1 µM) was 0.586. It also gave a relative viability (NCI-H2405; first compound 0.3162 µM) of 0.531, a relative viability (NCI-H2405; first compound 1 µM) of 0.404 and a relative viability (NCI-H358; first compound 0.01 µM) of 0.353. The relative viability (NCI-H358; first compound 0.03162 µM) was 0.282, the relative viability (NCI-H358; first compound 0.1 µM) was 0.38 and the relative viability (NCI-H358; first compound 0.3162 µM) was 0.35. For the same compound, the relative viability (NCI-H358; first compound 1 µM) was 0.3, the relative viability (NCI-H838; first compound 0.01 µM) was 0.441 and the relative viability (NCI-H838; first compound 0.03162 µM) was 0.4. It also gave a relative viability (NCI-H838; first compound 0.1 µM) of 0.395, a relative viability (NCI-H838; first compound 0.3162 µM) of 0.383 and a relative viability (NCI-H838; first compound 1 µM) of 0.244. For the same compound, the relative viability (SK-LU-1; first compound 0.01 µM) was 0.483, the relative viability (SK-LU-1; first compound 0.03162 µM) was 0.427 and the relative viability (SK-LU-1; first compound 0.1 µM) was 0.526. The relative viability (SK-LU-1; first compound 0.3162 µM) was 0.527 and the relative viability (SK-LU-1; first compound 1 µM) was 0.393.
